From PMC12514245, “Impaired migration and lung invasion of human melanoma by a novel small molecule targeting the transmembrane domain of death receptor p75^NTR” (EMBO Molecular Medicine, 2025)
Where “and” joins values, the source holds several entries; their conditions need not be identical. Equal entries are not always repeated.

Experiments:
A875 NT cells [1] = assay: Wound healing cell motility assay, A875 NT; format: cell-based, human; settings: for Wound area (Fold): A875 NT
Experimental: For wound healing assay, cells were grown until confluency and subjected to a wound across the cell mono-layer. Cells were then incubated with serum-free media either with DMSO or a small molecule (with or without 5 µM Q_VD_poH) and imaged at specific time-points. Cell migration is reflected as fold change in wound area over time.

A875 NT cells [2] = assay: Boyden chamber chemotaxis/invasion assay, A875 NT; format: cell-based, human; settings: for Fold change - invading cells, Mean / Fold change - invading cells, individual replicates: 1μM; for Fold change (invading cells), Mean: N=3
Experimental: For Boyden chamber assay, Corning® BioCoat™ Matrigel® Invasion Chambers 8.0 µm PET Membrane were used (cat. no. 354480). A875 NT or WM115 cells were serum-starved for 16 h and then seeded at 60,000 cells per well in serum-free media under different conditions, including DMSO (vehicle) or small molecules Div17E5 or Np75-4A22 at different concentrations to the top chamber of the Matrigel-coated trans-well chamber. The pan-caspase inhibitor Q_VD_poH (at 5 µM) was also introduced in the top chamber in some experiments. Two different chemoattractants, NGF (at 50 ng/ml or 100 ng/ml as indicated) or 10% FBS were added to the bottom chamber. Assays were carried out for 8 h after which filters were fixed in 4% PFA and stained with DAPI. Cells that had remained on the top of the filter were gently scrapped away with a cotton tip. The filter lower side was imaged on an inverted fluorescence microscope and counted using ImageJ software (NIH).

[3] = 5μM Q_VD_pOH + 10uM Div17E5, With NGF
[4] = 5μM Q_VD_pOH + 10uM Div17E5, without NGF

Structure (SMILES): Oc1ccc(-c2cncc(Nc3ccc(Br)c(Cl)c3)n2)cc1 [Div17E5]
- Wound area (Fold) (A875 NT cells [1]; 1uM, 12 h, Mean): 0.818 Fold
- Wound area (Fold) (A875 NT cells [1]; 1uM, 12 h, n1): 0.819 Fold
- Wound area (Fold) (A875 NT cells [1]; 1uM, 12 h, n2): 0.796 Fold
- Wound area (Fold) (A875 NT cells [1]; 1uM, 12 h, n3): 0.839 Fold
- Wound area (Fold) (A875 NT cells [1]; 1uM, 15 h, Mean): 0.788 Fold
- Wound area (Fold) (A875 NT cells [1]; 1uM, 15 h, n1): 0.792 Fold
- Wound area (Fold) (A875 NT cells [1]; 1uM, 15 h, n2): 0.758 Fold
- Wound area (Fold) (A875 NT cells [1]; 1uM, 15 h, n3): 0.814 Fold
- Wound area (Fold) (A875 NT cells [1]; 1uM, 18 h, Mean): 0.765 Fold
- Wound area (Fold) (A875 NT cells [1]; 1uM, 18 h, n1): 0.775 Fold
- Wound area (Fold) (A875 NT cells [1]; 1uM, 18 h, n2): 0.730 Fold
- Wound area (Fold) (A875 NT cells [1]; 1uM, 18 h, n3): 0.790 Fold
- Wound area (Fold) (A875 NT cells [1]; 1uM, 21 h, Mean): 0.730 Fold
- Wound area (Fold) (A875 NT cells [1]; 1uM, 21 h, n1): 0.735 Fold
- Wound area (Fold) (A875 NT cells [1]; 1uM, 21 h, n2): 0.696 Fold
- Wound area (Fold) (A875 NT cells [1]; 1uM, 21 h, n3): 0.758 Fold
- Wound area (Fold) (A875 NT cells [1]; 1uM, 24 h, Mean): 0.705 Fold
- Wound area (Fold) (A875 NT cells [1]; 1uM, 24 h, n1): 0.708 Fold
- Wound area (Fold) (A875 NT cells [1]; 1uM, 24 h, n2): 0.669 Fold
- Wound area (Fold) (A875 NT cells [1]; 1uM, 24 h, n3): 0.737 Fold
- Wound area (Fold) (A875 NT cells [1]; 2uM, 0 h, Mean): 1.000 Fold
- Wound area (Fold) (A875 NT cells [1]; 2uM, 0 h, n1): 0.9445 Fold
- Wound area (Fold) (A875 NT cells [1]; 2uM, 0 h, n2): 1.024 Fold
- Wound area (Fold) (A875 NT cells [1]; 2uM, 0 h, n3): 1.031 Fold
- Wound area (Fold) (A875 NT cells [1]; 2uM, 3 h, Mean): 0.936 Fold
- Wound area (Fold) (A875 NT cells [1]; 2uM, 3 h, n1): 0.9336 Fold
- Wound area (Fold) (A875 NT cells [1]; 2uM, 3 h, n2): 0.9313 Fold
- Wound area (Fold) (A875 NT cells [1]; 2uM, 3 h, n3): 0.9444 Fold
- Wound area (Fold) (A875 NT cells [1]; 2uM, 6 h, Mean): 0.874 Fold
- Wound area (Fold) (A875 NT cells [1]; 2uM, 6 h, n1): 0.8802 Fold
- Wound area (Fold) (A875 NT cells [1]; 2uM, 6 h, n2): 0.851 Fold
- Wound area (Fold) (A875 NT cells [1]; 2uM, 6 h, n3): 0.8894 Fold
- Wound area (Fold) (A875 NT cells [1]; 2uM, 9 h, Mean): 0.841 Fold
- Wound area (Fold) (A875 NT cells [1]; 2uM, 9 h, n1): 0.8687 Fold
- Wound area (Fold) (A875 NT cells [1]; 2uM, 9 h, n2): 0.7852 Fold
- Wound area (Fold) (A875 NT cells [1]; 2uM, 9 h, n3): 0.8693 Fold
- Wound area (Fold) (A875 NT cells [1]; 2uM, 12 h, Mean): 0.798 Fold
- Wound area (Fold) (A875 NT cells [1]; 2uM, 12 h, n1): 0.822 Fold
- Wound area (Fold) (A875 NT cells [1]; 2uM, 12 h, n2): 0.7423 Fold
- Wound area (Fold) (A875 NT cells [1]; 2uM, 12 h, n3): 0.8308 Fold
- Wound area (Fold) (A875 NT cells [1]; 2uM, 15 h, Mean): 0.764 Fold
- Wound area (Fold) (A875 NT cells [1]; 2uM, 15 h, n1): 0.7994 Fold
- Wound area (Fold) (A875 NT cells [1]; 2uM, 15 h, n2): 0.707 Fold
- Wound area (Fold) (A875 NT cells [1]; 2uM, 15 h, n3): 0.7869 Fold
- Wound area (Fold) (A875 NT cells [1]; 2uM, 18 h, Mean): 0.723 Fold
- Wound area (Fold) (A875 NT cells [1]; 2uM, 18 h, n1): 0.7549 Fold
- Wound area (Fold) (A875 NT cells [1]; 2uM, 18 h, n2): 0.6745 Fold
- Wound area (Fold) (A875 NT cells [1]; 2uM, 18 h, n3): 0.7404 Fold
- Wound area (Fold) (A875 NT cells [1]; 2uM, 21 h, Mean): 0.674 Fold
- Wound area (Fold) (A875 NT cells [1]; 2uM, 21 h, n1): 0.6977 Fold
- Wound area (Fold) (A875 NT cells [1]; 2uM, 21 h, n2): 0.6158 Fold
- Wound area (Fold) (A875 NT cells [1]; 2uM, 21 h, n3): 0.7086 Fold
- Wound area (Fold) (A875 NT cells [1]; 2uM, 24 h, Mean): 0.637 Fold
- Wound area (Fold) (A875 NT cells [1]; 2uM, 24 h, n1): 0.6671 Fold
- Wound area (Fold) (A875 NT cells [1]; 2uM, 24 h, n2): 0.5815 Fold
- Wound area (Fold) (A875 NT cells [1]; 2uM, 24 h, n3): 0.6623 Fold
- wound healing assay (A875 NT cells [1]; low micromolar and submicromolar concentrations): totally inactive
- NGF-induced chemotaxis (A875 NT cells [2]): strongly inhibited
- background cell migration in the absence of NGF (A875 NT cells [2]): did not significantly affect background cell migration
- Fold change - invading cells, Mean (A875 NT cells [2]; NGF): 1.91
- Fold change - invading cells, individual replicates (A875 NT cells [2]; NGF): 1.80 and 1.91 and 2.02
- Fold change - invading cells, Mean (A875 NT cells [2]; no NGF): 0.91
- Fold change - invading cells, individual replicates (A875 NT cells [2]; no NGF): 0.87 and 0.90 and 0.95
- NGF activity in Boyden chamber assay of cell chemotaxis (A875 NT cells [2]; 1 μM, NGF 50 ng/ml): inactive
- Fold change (invading cells), n1-n3 (A875 NT cells [2]; [3]): 0.46 Fold and 0.84 Fold and 0.68 Fold
- Fold change (invading cells), Mean (A875 NT cells [2]; [3]): 0.66 Fold
- Fold change (invading cells), n1-n3 (A875 NT cells [2]; [4]): 0.94 Fold and 0.80 Fold
- Fold change (invading cells), Mean (A875 NT cells [2]; [4]): 0.89 Fold
- Fold change (invading cells), n1-n3 (A875 NT cells [2]; 10μM Div17E5, With NGF): 0.42 Fold and 0.37 Fold and 0.47 Fold
- Fold change (invading cells), Mean (A875 NT cells [2]; 10μM Div17E5, With NGF): 0.42 Fold
- Fold change (invading cells), n1-n3 (A875 NT cells [2]; 10μM Div17E5, without NGF): 0.87 Fold and 0.75 Fold and 0.76 Fold
- Fold change (invading cells), Mean (A875 NT cells [2]; 10μM Div17E5, without NGF): 0.79 Fold
